In PubChem BioAssay AID2060607 (Molecular Pharmacology Branch, DTP, NCI, 2025):

System: 876862-298-R-J1-PDC complex spheroids, viability % test/control
Test: Anticancer human tumor 876862-298-R-J1-PDC patient-derived endometrial carcinoma cell line growth inhibition [CLK]
Details: for IC50: curve of first compound; for viability, T/C: stronger effect = lower value
In short: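 Multi-cell-type spheroids combined patient-derived tumor cells with HUVEC endothelial cells and human mesenchymal stem cells. Paired agents were dosed in half-log steps down from about clinical Cmax, or from 10 microM where Cmax was unknown.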

[1] = second compound 0.0316 µM, first compound 0.00949 µM
[2] = second compound 0.0316 µM, first compound 0.03 µM
[3] = second compound 0.0316 µM, first compound 0.0949 µM
[4] = second compound 0.0316 µM, first compound 0.3 µM
[5] = second compound 0.1 µM, first compound 0.00949 µM
[6] = second compound 0.1 µM, first compound 0.03 µM
[7] = second compound 0.1 µM, first compound 0.0949 µM
[8] = second compound 0.1 µM, first compound 0.3 µM
[9] = second compound 0.316 µM, first compound 0.00949 µM
[10] = second compound 0.316 µM, first compound 0.03 µM
[11] = second compound 0.316 µM, first compound 0.0949 µM
[12] = second compound 0.316 µM, first compound 0.3 µM
[13] = second compound 1 µM, first compound 0.00949 µM
[14] = second compound 1 µM, first compound 0.03 µM
[15] = second compound 1 µM, first compound 0.0949 µM
[16] = second compound 1 µM, first compound 0.3 µM
[17] = second compound 3.16 µM, first compound 0.00949 µM
[18] = second compound 3.16 µM, first compound 0.03 µM
[19] = second compound 3.16 µM, first compound 0.0949 µM
[20] = second compound 3.16 µM, first compound 0.3 µM
[21] = second compound 10 µM, first compound 0.00949 µM
[22] = second compound 10 µM, first compound 0.03 µM
[23] = second compound 10 µM, first compound 0.0949 µM
[24] = second compound 10 µM, first compound 0.3 µM
[25] = second compound 0.0316 µM, first compound 0.0316 µM
[26] = second compound 0.0316 µM, first compound 0.1 µM
[27] = second compound 0.0316 µM, first compound 0.316 µM
[28] = second compound 0.0316 µM, first compound 1 µM
[29] = second compound 0.0316 µM, first compound 3.16 µM
[30] = second compound 0.0316 µM, first compound 10 µM
[31] = second compound 0.1 µM, first compound 0.0316 µM
[32] = second compound 0.1 µM, first compound 0.1 µM
[33] = second compound 0.1 µM, first compound 0.316 µM
[34] = second compound 0.1 µM, first compound 1 µM
[35] = second compound 0.1 µM, first compound 3.16 µM
[36] = second compound 0.1 µM, first compound 10 µM
[37] = second compound 0.316 µM, first compound 0.0316 µM
[38] = second compound 0.316 µM, first compound 0.1 µM
[39] = second compound 0.316 µM, first compound 0.316 µM
[40] = second compound 0.316 µM, first compound 1 µM
[41] = second compound 0.316 µM, first compound 3.16 µM
[42] = second compound 0.316 µM, first compound 10 µM
[43] = second compound 1 µM, first compound 0.0316 µM
[44] = second compound 1 µM, first compound 0.1 µM
[45] = second compound 1 µM, first compound 0.316 µM
[46] = second compound 1 µM, first compound 1 µM
[47] = second compound 1 µM, first compound 3.16 µM
[48] = second compound 1 µM, first compound 10 µM
[49] = second compound 3.16 µM, first compound 0.0316 µM
[50] = second compound 3.16 µM, first compound 0.1 µM
[51] = second compound 3.16 µM, first compound 0.316 µM
[52] = second compound 3.16 µM, first compound 1 µM
[53] = second compound 3.16 µM, first compound 3.16 µM
[54] = second compound 3.16 µM, first compound 10 µM
[55] = second compound 10 µM, first compound 0.0316 µM
[56] = second compound 10 µM, first compound 0.1 µM
[57] = second compound 10 µM, first compound 0.316 µM
[58] = second compound 10 µM, first compound 1 µM
[59] = second compound 10 µM, first compound 3.16 µM
[60] = second compound 10 µM, first compound 10 µM
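Note: spheroids exposed to drugs for 7 days before readout.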
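Throughout, for viability, T/C: 100% = DMSO vehicle control wells.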

C=CC(=O)Nc1cc(Nc2nccc(-c3cn(C)c4ccccc34)n2)c(OC)cc1N(C)CCN(C)C + CN1CCN(c2cc(C(=O)Nc3cc4cc(-c5cnn(C)c5)ccc4cn3)ccn2)CC1
IC50 (second compound 0.0316 µM): 0.262 µM
IC50 (second compound 0.1 µM): < 0.000949 µM
IC50 (second compound 0.316 µM): < 0.000949 µM
IC50 (second compound 1 µM): < 0.000949 µM
IC50 (second compound 3.16 µM): < 0.000949 µM
IC50 (second compound 10 µM): < 0.000949 µM
viability, T/C (second compound 0.0316 µM, first compound 0.000949 µM): 90%
viability, T/C (second compound 0.0316 µM, first compound 0.003 µM): 92.8%
viability, T/C [1]: 90%
viability, T/C [2]: 82.7%
viability, T/C [3]: 67.6%
viability, T/C [4]: 47.6%
viability, T/C (second compound 0.1 µM, first compound 0.000949 µM): 51.6%
viability, T/C (second compound 0.1 µM, first compound 0.003 µM): 45.1%
viability, T/C [5]: 43.7%
viability, T/C [6]: 48.8%
viability, T/C [7]: 43.3%
viability, T/C [8]: 30.7%
viability, T/C (second compound 0.316 µM, first compound 0.000949 µM): 3.41%
viability, T/C (second compound 0.316 µM, first compound 0.003 µM): 4.12%
viability, T/C [9]: 3.52%
viability, T/C [10]: 4.04%
viability, T/C [11]: 4.57%
viability, T/C [12]: 3.03%
viability, T/C (second compound 1 µM, first compound 0.000949 µM): 0.75%
viability, T/C (second compound 1 µM, first compound 0.003 µM): 1.64%
viability, T/C [13]: 2.15%
viability, T/C [14]: 1.03%
viability, T/C [15]: 0.6%
viability, T/C [16]: 2.34%
viability, T/C (second compound 3.16 µM, first compound 0.000949 µM): 1.02%
viability, T/C (second compound 3.16 µM, first compound 0.003 µM): 1.18%
viability, T/C [17]: 1.66%
viability, T/C [18]: 1.01%
viability, T/C [19]: 1.3%
viability, T/C [20]: 1.16%
viability, T/C (second compound 10 µM, first compound 0.000949 µM): 0.77%
viability, T/C (second compound 10 µM, first compound 0.003 µM): 2.03%
viability, T/C [21]: 2.52%
viability, T/C [22]: 1.87%
viability, T/C [23]: 2.21%
viability, T/C [24]: 1.88%

CC1(C)CCC(CN2CCN(c3ccc(C(=O)NS(=O)(=O)c4ccc(NCC5CCOCC5)c([N+](=O)[O-])c4)c(Oc4cnc5[nH]ccc5c4)c3)CC2)=C(c2ccc(Cl)cc2)C1 + CN1CCN(c2cc(C(=O)Nc3cc4cc(-c5cnn(C)c5)ccc4cn3)ccn2)CC1
IC50 (second compound 0.0316 µM): 5.74 µM
IC50 (second compound 0.1 µM): < 0.0316 µM
IC50 (second compound 0.316 µM): < 0.0316 µM
IC50 (second compound 1 µM): < 0.0316 µM
IC50 (second compound 3.16 µM): < 0.0316 µM
IC50 (second compound 10 µM): < 0.0316 µM
viability, T/C [25]: 95%
viability, T/C [26]: 89.1%
viability, T/C [27]: 90.4%
viability, T/C [28]: 89.2%
viability, T/C [29]: 94.7%
viability, T/C [30]: 11.1%
viability, T/C [31]: 52.3%
viability, T/C [32]: 47.5%
viability, T/C [33]: 45.5%
viability, T/C [34]: 46.1%
viability, T/C [35]: 43.8%
viability, T/C [36]: 3.97%
viability, T/C [37]: 2.64%
viability, T/C [38]: 2.13%
viability, T/C [39]: 2.43%
viability, T/C [40]: 2.21%
viability, T/C [41]: 1.34%
viability, T/C [42]: 0.56%
viability, T/C [43]: 0.41%
viability, T/C [44]: 1.28%
viability, T/C [45]: 0.52%
viability, T/C [46]: 0.24%
viability, T/C [47]: 0.22%
viability, T/C [48]: 0.53%
viability, T/C [49]: 0.68%
viability, T/C [50]: 0.51%
viability, T/C [51]: 0.52%
viability, T/C [52]: 0.34%
viability, T/C [53]: 0.16%
viability, T/C [54]: 0.09%
viability, T/C [55]: 0.38%
viability, T/C [56]: 0.67%
viability, T/C [57]: 0.34%
viability, T/C [58]: 0.45%
viability, T/C [59]: 0.19%
viability, T/C [60]: 1.19%

NC(=O)C(=Cn1cnc(-c2cc(C(F)(F)F)cc(C(F)(F)F)c2)n1)c1cncnc1 + CN1CCN(c2cc(C(=O)Nc3cc4cc(-c5cnn(C)c5)ccc4cn3)ccn2)CC1
IC50 (second compound 0.0316 µM): 0.0294 µM
IC50 (second compound 0.1 µM): < 0.00949 µM
IC50 (second compound 0.316 µM): < 0.00949 µM
IC50 (second compound 1 µM): < 0.00949 µM
IC50 (second compound 3.16 µM): < 0.00949 µM
IC50 (second compound 10 µM): < 0.00949 µM
viability, T/C [1]: 67.5%
viability, T/C [2]: 49.3%
viability, T/C [3]: 33%
viability, T/C [4]: 24.1%
viability, T/C (second compound 0.0316 µM, first compound 0.949 µM): 11.3%
viability, T/C (second compound 0.0316 µM, first compound 3 µM): 2.88%
viability, T/C [5]: 38.5%
viability, T/C [6]: 30.8%
viability, T/C [7]: 21.1%
viability, T/C [8]: 4.49%
viability, T/C (second compound 0.1 µM, first compound 0.949 µM): 0.38%
viability, T/C (second compound 0.1 µM, first compound 3 µM): 0.99%
viability, T/C [9]: 1.38%
viability, T/C [10]: 0.32%
viability, T/C [11]: 0.86%
viability, T/C [12]: 0.98%
viability, T/C (second compound 0.316 µM, first compound 0.949 µM): 0.83%
viability, T/C (second compound 0.316 µM, first compound 3 µM): 1.69%
viability, T/C [13]: 0.33%
viability, T/C [14]: 0.27%
viability, T/C [15]: 0.22%
viability, T/C [16]: 0.36%
viability, T/C (second compound 1 µM, first compound 0.949 µM): 0.45%
viability, T/C (second compound 1 µM, first compound 3 µM): 1.17%
viability, T/C [17]: 0.3%
viability, T/C [18]: 1.41%
viability, T/C [19]: 0.93%
viability, T/C [20]: 0.82%
viability, T/C (second compound 3.16 µM, first compound 0.949 µM): 1.14%
viability, T/C (second compound 3.16 µM, first compound 3 µM): 1.63%
viability, T/C [21]: 1.33%
viability, T/C [22]: 1.7%
viability, T/C [23]: 1.02%
viability, T/C [24]: 1.05%
viability, T/C (second compound 10 µM, first compound 0.949 µM): 1.22%
viability, T/C (second compound 10 µM, first compound 3 µM): 1.15%

Nc1ccccc1NC(=O)c1ccc(CNC(=O)OCc2cccnc2)cc1 + CN1CCN(c2cc(C(=O)Nc3cc4cc(-c5cnn(C)c5)ccc4cn3)ccn2)CC1
IC50 (second compound 0.0316 µM): 4.01 µM
IC50 (second compound 0.1 µM): < 0.0316 µM
IC50 (second compound 0.316 µM): < 0.0316 µM
IC50 (second compound 1 µM): < 0.0316 µM
IC50 (second compound 3.16 µM): < 0.0316 µM
IC50 (second compound 10 µM): < 0.0316 µM
viability, T/C [25]: 86.8%
viability, T/C [26]: 95.2%
viability, T/C [27]: 81.9%
viability, T/C [28]: 83.9%
viability, T/C [29]: 54.9%
viability, T/C [30]: 30.6%
viability, T/C [31]: 48.5%
viability, T/C [32]: 48.5%
viability, T/C [33]: 40.9%
viability, T/C [34]: 34.1%
viability, T/C [35]: 15.7%
viability, T/C [36]: 3.34%
viability, T/C [37]: 2.84%
viability, T/C [38]: 1.59%
viability, T/C [39]: 1.03%
viability, T/C [40]: 0.37%
viability, T/C [41]: 0.85%
viability, T/C [42]: 0.12%
viability, T/C [43]: 0.89%
viability, T/C [44]: 1.78%
viability, T/C [45]: 1.05%
viability, T/C [46]: 0.95%
viability, T/C [47]: 1.68%
viability, T/C [48]: 1.65%
viability, T/C [49]: 1.22%
viability, T/C [50]: 1.55%
viability, T/C [51]: 1.06%
viability, T/C [52]: 1.89%
viability, T/C [53]: 2.98%
viability, T/C [54]: 3.09%
viability, T/C [55]: 0.79%
viability, T/C [56]: 1.03%
viability, T/C [57]: 2.17%
viability, T/C [58]: 1.89%
viability, T/C [59]: 3.24%
viability, T/C [60]: 1.78%
